According to US20220387435A1, “USE OF MULTI-TARGET PROTEIN KINASE INHIBITOR” (CSPC Zhongqi Pharmaceutical Technology (Shijiazhuang) Co., …, priority 2019, published 2022):
“And” between values parts separate entries of the source, which are not always exact repeats. Equal values may be shown once. Read-outs that look alike come from different tables or passages of the source.

How the values were obtained:
FLT3-TKD mutation = FLT3-TKD mutation activity (comparison of FLT-3 inhibitors); conditions: compound A
[1] = Preclinical animal experiments of compound A, adverse reactions; type: in vivo
[2] = tested on: Chinese adult subjects with FLT3-mutant R/R AML; assay: Phase II clinical study, safety

CC(C)n1c(Nc2cccnc2)nc2cnc(Nc3ccc(N4CCN(C)CC4)cc3)nc21 [Compound A]
FLT3-TKD mutation activity (FLT3-TKD mutation): No
heart-related adverse reactions [1]: myocardial cell necrosis and fibrosis, increased heart rate, and QT interval prolongation in dying animals
liver-related adverse reactions [1]: hepatocyte degeneration and necrosis and elevated transaminase
Adverse events leading to death [2]: 3 (23.1) n (%)
Adverse events of > Grade 3 [2]: 11 (84.6) n (%)
Important adverse reactions [2]: 8 (61.5) n (%)
Non-hematologic adverse events of > Grade 3 [2]: 11 (84.6) n (%)
elevated blood lactate dehydrogenase ([2]; 150 mg BID group): 1 subject
elevated aspartate amino transferase ([2]; 150 mg BID group (1 subject)): 7.1%
adverse reactions classified as cardiac organ diseases (SOC) ([2]; 150 mg BID group (2 subjects)): 14.3%
adverse reactions classified as hepatobiliary system disease (SOC) ([2]; 150 mg BID group (2 subjects)): 14.3%
elevated hemobilirubin ([2]; 150 mg BID group (2 subjects)): 14.3%
incidence of hematological adverse reactions of grade ≥4 ([2]; 150 mg BID group (7 cases)): 50%
Adverse events ([2]; 150 mg group (N = 14)): 14 (100.0) n (%)
Adverse events leading to death ([2]; 150 mg group (N = 14)): 4 (28.6) n (%)
Adverse events leading to dose reduction ([2]; 150 mg group (N = 14)): 3 (21.4) n (%)
Adverse events leading to withdrawal from the trial ([2]; 150 mg group (N = 14)): 3 (21.4) n (%)
Adverse events of > Grade 3 ([2]; 150 mg group (N = 14)): 13 (92.9) n (%)
Adverse reactions ([2]; 150 mg group (N = 14)): 12 n (%) and 12 (85.7) n (%)
Adverse reactions leading to death ([2]; 150 mg group (N = 14)): 1 (7.1) n (%)
Adverse reactions leading to dose reduction ([2]; 150 mg group (N = 14)): 3 (21.4) n (%)
Adverse reactions leading to withdrawal from the trial ([2]; 150 mg group (N = 14)): 0 (0) n (%)
Adverse reactions of > Grade 3 ([2]; 150 mg group (N = 14)): 9 (64.3) n (%)
Important adverse events ([2]; 150 mg group (N = 14)): 11 (78.6) n (%)
Important adverse reactions ([2]; 150 mg group (N = 14)): 8 (57.1) n (%)
Non-hematologic adverse events of > Grade 3 ([2]; 150 mg group (N = 14)): 10 (71.4) n (%)
Non-hematological adverse reactions of > Grade 3 ([2]; 150 mg group (N = 14)): 4 (28.6) n (%)
Serious adverse events ([2]; 150 mg group (N = 14)): 11 (78.6) n (%)
Serious adverse reactions ([2]; 150 mg group (N = 14)): 5 (35.7) n (%)
adverse events of > Grade 4 ([2]; 150 mg group (N = 14)): 8 (57.1) n (%)
adverse reactions of > Grade 4 ([2]; 150 mg group (N = 14)): 7 (50.0) n (%)
adverse reactions classified as cardiac organ diseases (SOC) ([2]; 200 mg BID group): 0 subjects
electrocardiogram high voltage ([2]; 200 mg BID group): 1 subject
elevated hemobilirubin ([2]; 200 mg BID group (1 subject)): 25%
incidence of hematological adverse reactions of grade ≥4 ([2]; 200 mg BID group (2 cases)): 50%
Adverse events ([2]; 200 mg group (N = 4)): 4 (100.0) n (%)
Adverse events leading to death ([2]; 200 mg group (N = 4)): 1 (25.0) n (%)
Adverse events leading to dose reduction ([2]; 200 mg group (N = 4)): 2 (50.0) n (%)
Adverse events leading to withdrawal from the trial ([2]; 200 mg group (N = 4)): 1 (25.0) n (%)
Adverse events of > Grade 3 ([2]; 200 mg group (N = 4)): 4 (100.0) n (%)
Adverse reactions ([2]; 200 mg group (N = 4)): 4 n (%) and 4 (100.0) n (%)
Adverse reactions leading to death ([2]; 200 mg group (N = 4)): 0 (0) n (%)
Adverse reactions leading to dose reduction ([2]; 200 mg group (N = 4)): 2 (50.0) n (%)
Adverse reactions leading to withdrawal from the trial ([2]; 200 mg group (N = 4)): 0 (0) n (%)
Adverse reactions of > Grade 3 ([2]; 200 mg group (N = 4)): 3 (75.0) n (%)
Important adverse events ([2]; 200 mg group (N = 4)): 4 (100.0) n (%)
Important adverse reactions ([2]; 200 mg group (N = 4)): 3 (75.0) n (%)
Non-hematologic adverse events of > Grade 3 ([2]; 200 mg group (N = 4)): 4 (100.0) n (%)
Non-hematological adverse reactions of > Grade 3 ([2]; 200 mg group (N = 4)): 3 (75.0) n (%)
Serious adverse events ([2]; 200 mg group (N = 4)): 3 (75.0) n (%)
Serious adverse reactions ([2]; 200 mg group (N = 4)): 2 (50.0) n (%)
adverse events of > Grade 4 ([2]; 200 mg group (N = 4)): 2 (50.0) n (%)
adverse reactions of > Grade 4 ([2]; 200 mg group (N = 4)): 2 (50.0) n (%)
electrocardiogram high voltage ([2]; 300 mg QD group): 1 subject
adverse reactions classified as cardiac organ diseases (SOC) ([2]; 300 mg QD group (1 subject)): 7.7%
adverse reactions classified as hepatobiliary system disease (SOC) ([2]; 300 mg QD group (2 subjects)): 15.4%
elevated gamma-glutamyltransferase ([2]; 300 mg QD group (2 subjects)): 15.4%
elevated blood alkaline phosphatase ([2]; 300 mg QD group (3 subjects)): 23.1%
elevated hemobilirubin ([2]; 300 mg QD group (3 subjects)): 23.1%
incidence of hematological adverse reactions of grade ≥4 ([2]; 300 mg QD group (9 cases)): 69.2%
Adverse events ([2]; 300 mg group (N = 14)): 13 (100.0) n (%)
Adverse events leading to dose reduction ([2]; 300 mg group (N = 14)): 2 (15.4) n (%)
Adverse events leading to withdrawal from the trial ([2]; 300 mg group (N = 14)): 0 (0) n (%)
Adverse reactions ([2]; 300 mg group (N = 14)): 12 n (%) and 12 (92.3) n (%)
Adverse reactions leading to death ([2]; 300 mg group (N = 14)): 1 (7.7) n (%)
Adverse reactions leading to dose reduction ([2]; 300 mg group (N = 14)): 1 (7.7) n (%)
Adverse reactions leading to withdrawal from the trial ([2]; 300 mg group (N = 14)): 0 (0) n (%)
Adverse reactions of > Grade 3 ([2]; 300 mg group (N = 14)): 9 (69.2) n (%)
Important adverse events ([2]; 300 mg group (N = 14)): 11 (84.6) n (%)
Non-hematological adverse reactions of > Grade 3 ([2]; 300 mg group (N = 14)): 7 (53.8) n (%)
Serious adverse events ([2]; 300 mg group (N = 14)): 10 (76.9) n (%)
Serious adverse reactions ([2]; 300 mg group (N = 14)): 6 (46.2) n (%)
adverse events of > Grade 4 ([2]; 300 mg group (N = 14)): 9 (69.2) n (%)
adverse reactions of > Grade 4 ([2]; 300 mg group (N = 14)): 9 (69.2) n (%)
serious hematological adverse reaction: anemia ([2]; 31 subjects (1 case)): 3.2%
serious hematological adverse reaction: bone marrow failure ([2]; 31 subjects (1 case)): 3.2%
serious hematological adverse reaction: hemolyticanemia ([2]; 31 subjects (1 case)): 3.2%
serious hematological adverse reaction: leukocytopenia ([2]; 31 subjects (1 case)): 3.2%
serious hematological adverse reaction: neutropenia ([2]; 31 subjects (2 cases)): 6.5%
serious hematological adverse reaction: thrombocytopenia ([2]; 31 subjects (3 cases)): 9.7%
adverse reactions of grade ≥3: infectious pneumonia ([2]; 31 subjects (4 cases)): 12.9%
adverse reactions of grade ≥3: diarrhea ([2]; 31 subjects (5 cases)): 16.1%
adverse reactions of grade ≥3: Lymphocytopenia ([2]; 31 subjects (6 cases)): 19.4%
adverse reactions of grade ≥3: anemia ([2]; 31 subjects (6 cases)): 19.4%
adverse reactions of grade ≥3: thrombocytopenia ([2]; 31 subjects (8 cases)): 25.8%
adverse reactions of grade ≥3: neutropenia ([2]; 31 subjects (11 cases)): 35.5%
adverse reactions of grade ≥3: leukocytopenia ([2]; 31 subjects (16 cases)): 51.6%
Adverse events ([2]; Total (N = 31)): 31 n (%) and 31 (100.0) n (%)
Adverse events leading to death ([2]; Total (N = 31)): 8 (25.8) n (%)
Adverse events leading to dose reduction ([2]; Total (N = 31)): 7 (22.6) n (%)
Adverse events leading to withdrawal from the trial ([2]; Total (N = 31)): 4 (12.9) n (%)
Adverse events of > Grade 3 ([2]; Total (N = 31)): 28 (90.3) n (%)
Adverse reactions ([2]; Total (N = 31)): 28 (90.3%) n (%) and 28 (90.3) n (%)
Adverse reactions leading to death ([2]; Total (N = 31)): 2 (6.5) n (%)
Adverse reactions leading to dose reduction ([2]; Total (N = 31)): 6 (19.4) n (%)
Adverse reactions leading to withdrawal from the trial ([2]; Total (N = 31)): 0 (0) n (%)
Adverse reactions of > Grade 3 ([2]; Total (N = 31)): 21 (67.7) n (%)
Important adverse events ([2]; Total (N = 31)): 26 (83.9) n (%)
Important adverse reactions ([2]; Total (N = 31)): 19 (61.3) n (%)
Non-hematologic adverse events of > Grade 3 ([2]; Total (N = 31)): 25 (80.6) n (%)
Non-hematological adverse reactions of > Grade 3 ([2]; Total (N = 31)): 14 (45.2) n (%)
Serious adverse events ([2]; Total (N = 31)): 24 (77.4) n (%)
Serious adverse reactions ([2]; Total (N = 31)): 13 (41.9) n (%)
adverse events of > Grade 4 ([2]; Total (N = 31)): 19 (61.3) n (%)
adverse reactions of > Grade 4 ([2]; Total (N = 31)): 18 (58.1) n (%)
adverse reactions of QT interval prolongation ([2]; all groups): No adverse reactions of QT interval prolongation were observed
examination abnormality related to the heart (SOC) ([2]; all groups): 3 subjects
grade of heart-related adverse reactions ([2]; all groups): 1-2 Grades
grade of hepato toxicities ([2]; all groups): 1-2 Grades
liver-, kidney-, and heart-related adverse reactions of grade ≥3 ([2]; throughout the trial): no liver-, kidney-, and heart-related adverse reactions of grade ≥3 occurred
elevated aspartate amino transferase ([2]; total (1 subject)): 3.2%
elevated gamma-glutamyltransferase ([2]; total (2 subjects)): 6.5%
elevated blood alkaline phosphatase ([2]; total (3 subjects)): 9.7%
adverse reactions classified as hepatobiliary system disease (SOC) ([2]; total (4 subjects)): 12.9%
elevated hemobilirubin ([2]; total (6 subjects)): 19.4%
adverse reactions classified as cardiac organ diseases (SOC) ([2]; total, 31 subjects (3 subjects)): 9.7%
